This assay has as its target T1, USP7 (Homo sapiens, UniProt Q93009).
T1 construct: The USP7 construct was PCR amplified and cloned into a pFLAG-CMV-6a vector (Sigma-Aldrich) with an N-terminal FLAG tag; made in house; host or cells: HEK293T
The assay can be described thus: USP7 biochemical IC50 assay (fluorescence polarisation, TAMRA labelled peptide linked to ubiquitin via an iso-peptide bond). Conditions: 30 min pre-incubation of enzyme and compound, read after 2 hr incubation at room temperature, read-out: IC50 range. Put shortly:
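Fluorescence polarisation at 540 nm excitation/590 nm emission, read immediately and after 2 hr at room temperature, following addition of 50 nM TAMRA-labelled iso-peptide ubiquitin substrate.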
For orientation: In fluorescence polarisation assays a small probe gives low polarisation when free and higher when bound to something large.
T1 sequence (Q93009 whole entry): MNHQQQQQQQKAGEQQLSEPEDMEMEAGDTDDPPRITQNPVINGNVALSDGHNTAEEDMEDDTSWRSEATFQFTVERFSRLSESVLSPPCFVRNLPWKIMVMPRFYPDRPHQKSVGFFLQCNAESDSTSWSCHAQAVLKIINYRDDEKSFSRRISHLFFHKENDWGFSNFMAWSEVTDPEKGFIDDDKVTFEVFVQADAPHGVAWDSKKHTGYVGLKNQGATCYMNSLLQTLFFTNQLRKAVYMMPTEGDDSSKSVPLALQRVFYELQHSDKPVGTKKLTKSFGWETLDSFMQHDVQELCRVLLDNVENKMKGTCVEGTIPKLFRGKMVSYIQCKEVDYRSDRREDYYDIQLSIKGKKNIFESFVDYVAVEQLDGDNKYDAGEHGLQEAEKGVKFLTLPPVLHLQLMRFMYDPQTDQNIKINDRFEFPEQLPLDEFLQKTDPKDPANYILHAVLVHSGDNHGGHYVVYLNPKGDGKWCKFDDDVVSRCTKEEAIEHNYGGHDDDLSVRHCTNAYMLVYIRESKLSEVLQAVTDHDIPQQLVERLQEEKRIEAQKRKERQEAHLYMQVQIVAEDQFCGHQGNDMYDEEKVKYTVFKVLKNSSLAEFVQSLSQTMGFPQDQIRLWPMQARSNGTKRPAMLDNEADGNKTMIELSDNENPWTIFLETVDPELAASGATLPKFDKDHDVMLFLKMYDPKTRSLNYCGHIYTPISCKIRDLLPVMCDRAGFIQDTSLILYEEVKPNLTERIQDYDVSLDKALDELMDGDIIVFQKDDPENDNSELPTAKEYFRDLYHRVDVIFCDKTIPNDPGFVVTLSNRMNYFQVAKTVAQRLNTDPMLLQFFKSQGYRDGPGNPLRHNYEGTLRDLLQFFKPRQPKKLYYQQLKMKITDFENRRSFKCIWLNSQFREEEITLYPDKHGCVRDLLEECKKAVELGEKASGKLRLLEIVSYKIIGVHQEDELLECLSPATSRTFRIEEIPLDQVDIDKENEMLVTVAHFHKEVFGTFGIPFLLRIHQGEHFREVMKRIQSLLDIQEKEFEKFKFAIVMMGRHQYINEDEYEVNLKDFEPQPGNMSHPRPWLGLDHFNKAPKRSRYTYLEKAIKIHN
What is called IC50 is the concentration that gives 50% inhibition. On to `N#Cc1cccc(-c2nc3c(c(N4CCc5ccccc5C4)n2)CN(C#N)C3)c1` [Example 141, 2-(3-cyanophenyl)-4-(3,4-dihydroisoquinolin-2(1H)-yl)-5,7-dihydro-6H-pyrrolo[3,4-d]pyrimidine-6-carbonitrile], for which the IC50 lay in the range of 1000 to 10000 nM.
Next, `CN1CCC[C@H](C(=O)Nc2cc3c(c(-c4ccccc4)c2)CN(C#N)C3)C1` [Example 37, (S)—N-(2-cyano-7-phenylisoindolin-5-yl)-1-methylpiperidine-3-carboxamide]: below 1000 nM; `CN1CCOC(CNc2nc3c(c(-c4ccccc4)n2)CN(C#N)C3)C1` (single isomer, unassigned) [Example 152, 2-(((4-methylmorpholin-2-yl)methyl)amino)-4-phenyl-5,7-dihydro-6H-pyrrolo[3,4-d]pyrimidine-6-carbonitrile]: 1000 to 10000 nM; `N#Cc1cccc(F)c1-c1cccc2c1CN(C#N)C2` [Example 168, 4-(2-cyano-6-fluorophenyl)isoindoline-2-carbonitrile]: 1000 to 10000 nM.
Under `CC(NC(=O)c1cccc(-c2cccc3c2CN(C#N)C3)c1)c1ccccc1` (stereo not shown) [Example 74, 3-(2-cyanoisoindolin-4-yl)-N-(1-phenylethyl)benzamide] stands 1000 to 10000 nM.
Turning to `CN(C)C(=O)Cc1cc2c(c(-c3ccccc3)c1)CN(C#N)C2` [Example 251, 2-(2-cyano-7-phenylisoindolin-5-yl)-N,N-dimethylacetamide], the IC50 was 1000 to 10000 nM.
Under `CCN(CC)c1cc2c(c(-c3ccc(C#N)cc3)c1)CN(C#N)C2` [Example 279, 4-(4-Cyanophenyl)-6-(diethylamino)isoindoline-2-carbonitrile] stands 1000 to 10000 nM.
For the compound `N#CN1Cc2cccc(NC(=O)c3ccc(N4CCOCC4)s3)c2C1` [Example 93, N-(2-cyanoisoindolin-4-yl)-5-morpholinothiophene-2-carboxamide], the half-inhibitory concentration (IC50) was in the range of 1000 to 10000 nM.
Under `CN1CC=C(c2cccc3c2CN(C#N)C3)CC1` [Example 10, 4-(1-methyl-1,2,3,6-tetrahydropyridin-4-yl)isoindoline-2-carbonitrile] stands 1000 to 10000 nM.
Next, `CCNc1cc2c(c(-c3ccc(C#N)cc3)c1)CN(C#N)C2` [Example 277, 4-(4-cyanophenyl)-6-(ethylamino)isoindoline-2-carbonitrile]: 1000 to 10000 nM; `CNC(=O)NCc1cc2c(c(-c3ccc(C#N)cc3C#N)c1)CN(C#N)C2` [Example 228, 1-((2-cyano-7-(2,4-dicyanophenyl)isoindolin-5-yl)methyl)-3-methylurea]: 1000 to 10000 nM.
With `N#Cc1ccc(-c2ccc(F)c3c2CN(C#N)C3)c(C(N)=O)c1` [Example 261, 5-cyano-2-(2-cyano-7-fluoroisoindolin-4-yl)benzamide], the IC50 is 1000 to 10000 nM.
Under `N#CN1Cc2nc(NCC3CCOCC3)nc(N3CCc4ccccc4C3)c2C1` [Example 200, 4-(3,4-dihydroisoquinolin-2(1H)-yl)-2-(((tetrahydro-2H-pyran-4-yl)methyl)amino)-5,7-dihydro-6H-pyrrolo[3,4-d]pyrimidine-6-carbonitrile] stands 1000 to 10000 nM; under `CNC(=O)NCc1cc2c(c(-c3ccccc3C#N)c1)CN(C#N)C2` [Example 229, 1-((2-cyano-7-(2-cyanophenyl)isoindolin-5-yl)methyl)-3-methylurea], 1000 to 10000 nM; under `CC(=O)Nc1nc2c(c(-c3cccc(OC(F)(F)F)c3)n1)CN(C#N)C2` [Example 106, N-(6-cyano-4-(3-(trifluoromethoxy)phenyl)-6,7-dihydro-5H-pyrrolo[3,4-d]pyrimidin-2-yl)acetamide], 1000 to 10000 nM.
Under `Cn1cc(-c2nc3c(c(N4CCc5ccccc5C4)n2)CN(C#N)C3)cn1` [Example 142, 4-(3,4-dihydroisoquinolin-2(1H)-yl)-2-(1-methyl-1H-pyrazol-4-yl)-5,7-dihydro-6H-pyrrolo[3,4-d]pyrimidine-6-carbonitrile] stands 1000 to 10000 nM; under `CN1CCOC(CNc2nc3c(c(-c4ccc(F)cc4)n2)CN(C#N)C3)C1` (stereo not shown) [Example 194, 4-(4-fluorophenyl)-2-(((4-methylmorpholin-2-yl)methyl)amino)-5,7-dihydro-6H-pyrrolo[3,4-d]pyrimidine-6-carbonitrile], 1000 to 10000 nM; under `N#CN1Cc2ncnc(-c3cccc(N4CCNC4=O)c3)c2C1` [Example 300, 4-(3-(2-oxoimidazolidin-1-yl)phenyl)-5,7-dihydro-6H-pyrrolo[3,4-c]pyrimidine-6-carbonitrile], 1000 to 10000 nM.
Next, `N#CN1Cc2nc(NCCO)nc(N3CCc4ccccc4C3)c2C1` [Example 202, 4-(3,4-dihydroisoquinolin-2(1H)-yl)-2-((2-hydroxyethyl)amino)-5,7-dihydro-6H-pyrrolo[3,4-d]pyrimidine-6-carbonitrile]: 1000 to 10000 nM; `CN1CCCC(C(=O)Nc2cc3c(c(-c4ccccc4)c2)CN(C#N)C3)C1` (racemic) [Example 36, N-(2-cyano-7-phenylisoindolin-5-yl)-1-methylpiperidine-3-carboxamide]: below 1000 nM.
For the compound `N#CN1Cc2cc(NC(=O)C3CCS(=O)(=O)CC3)cc(-c3ccccc3)c2C1` [Example 51, N-(2-cyano-7-phenylisoindoin-5-yl)tetrahydro-2H-thiopyran-4-carboxamide 1,1-dioxide], the IC50 was 1000 to 10000 nM.
Next, `N#CN1Cc2ncnc(N3CCc4ccccc4C3)c2C1` [Example 183, 4-(3,4-dihydroisoquinolin-2(1H)-yl)-5,7-dihydro-6H-pyrrolo[3,4-c]pyrimidine-6-carbonitrile]: 1000 to 10000 nM; `N#CN1Cc2cc(NC(=O)C3CCCNC3)cc(-c3ccccc3)c2C1` (stereo not shown) [Example 62, N-(2-cyano-7-phenylisoindolin-5-yl)piperidine-3-carboxamide]: below 1000 nM; `Cc1cc(-c2cccc3c2CN(C#N)C3)c(C(N)=O)cc1C#N` [Example 156, 5-cyano-2-(2-cyanoisoindolin-4-yl)-4-methylbenzamide]: 1000 to 10000 nM.
As for `N#Cc1ccc(-c2cc(CCc3cccnc3)cc3c2CN(C#N)C3)cc1` [Example 256, 4-(4-cyanophenyl)-6-(2-(pyridin-3-yl)ethyl)isoindoline-2-carbonitrile], the IC50 was in the range of 1000 to 10000 nM.
Under `COc1ccc(-c2cc(NC(=O)[C@@H]3CCCN(C)C3)cc3c2CN(C#N)C3)cc1` [Example 32, (R)-N-(2-cyano-7-(4-methoxyphenyl)isoindolin-5-yl)-1-methylpiperidine-3-carboxamide] stands below 1000 nM.
Next, `COc1ccc(-c2ccnc3c2CN(C#N)C3)cc1` [Example 17, 4-(4-methoxyphenyl)-5,7-dihydro-6H-pyrrolo[3,4-b]pyridine-6-carbonitrile]: 1000 to 10000 nM.
Consider `N#Cc1ccccc1-c1cc(NC[C@H](O)CO)cc2c1CN(C#N)C2` [Example 283, (S)-4-(2-cyanophenyl)-6-((2,3-dihydroxypropyl)amino)isoindoline-2-carbonitrile], for which the IC50 was below 1000 nM.
Next, `CN1CCCC(CNc2nc3c(c(N4CCc5ccccc5C4)n2)CN(C#N)C3)C1` (stereo not shown) [Example 196, 4-(3,4-dihydroisoquinolin-2(1H)-yl)-2-(((1-methylpiperidin-3-yl)methyl)amino)-5,7-dihydro-6H-pyrrolo[3,4-d]pyrimidine-6-carbonitrile]: 1000 to 10000 nM; `N#Cc1ccc(N2CCCC2=O)cc1-c1cccc2c1CN(C#N)C2` [Example 299, 4-(2-cyano-5-(2-oxopyrrolidin-1-yl)phenyl)isoindoline-2-carbonitrile]: 1000 to 10000 nM.
Next, `N#Cc1ccc(-c2cc(NCC3CCOCC3)cc3c2CN(C#N)C3)cc1` [Example 275, 4-(4-cyanophenyl)-6-(((tetrahydro-2H-pyran-4-yl)methyl)amino)isoindoline-2-carbonitrile]: below 1000 nM; `N#CN1Cc2ncnc(N3CCC(Oc4cccnc4)CC3)c2C1` [Example 101, 4-(4-(pyridin-3-yloxy)piperidin-1-yl)-5,7-dihydro-6H-pyrrolo[3,4-c]pyrimidine-6-carbonitrile]: 10000 to 30000 nM.
In the case of `CC(=O)Nc1nc2c(c(N3CCCC3)n1)CN(C#N)C2` [Example 148, N-(6-cyano-4-(pyrrolidin-1-yl)-6,7-dihydro-5H-pyrrolo[3,4-d]pyrimidin-2-yl)acetamide], the IC50 was 10000 to 30000 nM.
On to `CNc1nc2c(c(N3CCC(Oc4ccccc4)CC3)n1)CN(C#N)C2` [Example 204, 2-(methylamino)-4-(4-phenoxypiperidin-1-yl)-5,7-dihydro-6H-pyrrolo[3,4-d]pyrimidine-6-carbonitrile], for which the IC50 lay within 1000 to 10000 nM.
Next, `CN1CCCC(CNc2cc3c(c(-c4ccccc4)c2)CN(C#N)C3)C1` (stereo not shown) [Example 64, 6-(((1-methylpiperidin-3-yl)methyl)amino)-4-phenylisoindoline-2-carbonitrile]: below 1000 nM; `CN1CCC[C@@H](C(=O)Nc2cc3c(c(-c4cccnc4)c2)CN(C#N)C3)C1` [Example 164, (R)-N-(2-cyano-7-(pyridin-3-yl)isoindolin-5-yl)-1-methylpiperidine-3-carboxamide]: 1000 to 10000 nM; `COc1ccccc1OC1CCN(c2ncnc3c2CN(C#N)C3)CC1` [Example 186, 4-(4-(2-methoxyphenoxy)piperidin-1-yl)-5,7-dihydro-6H-pyrrolo[3,4-d]pyrimidine-6-carbonitrile]: 1000 to 10000 nM.
Next, `N#CN1Cc2cccc(-c3ccccc3S(N)(=O)=O)c2C1` [Example 161, 2-(2-cyanoisoindolin-4-yl)benzenesulfonamide]: 1000 to 10000 nM; `Cc1nc2ccc(-c3cc(NC(=O)[C@@H]4CCCN(C)C4)cc4c3CN(C#N)C4)cc2o1` [Example 35, (R)-N-(2-cyano-7-(2-methylbenzo[d]oxazol-6-yl)isoindolin-5-yl)-1-methylpiperidine-3-carboxamide]: below 1000 nM; `N#CN1Cc2cc(NC(=O)CCc3cccnc3)cc(-c3ccccc3)c2C1` [Example 41, N-(2-cyano-7-phenylisoindolin-5-yl)-3-(pyridin-3-yl)propanamide]: 1000 to 10000 nM.

These data come from patent US10683269B2 (MISSION THERAPEUTICS LIMITED, priority 2016, dated 2020).
